Laboratory results: the supplement of paper PMC4862054

Legend:
Experiment in all cases: normalised viability (% of control), CellTiter-Blue; higher = more viable cells (about 100 = DMSO control)
BT-549 [1] = settings: 100 nM; incubation time: 72 h
Method in brief: (§1)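 Normalised viability is given for a single listed concentration of the series. In 384-well plates, breast cancer cell lines were incubated 72 h with compound, then read with CellTiter-Blue (2 h, 37 °C) at 560/590 nm. Per-plate scaling set vehicle to 100 and a positive kill control to 0, with Z'-factor quality control.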

CAL-148 [2] = settings: 10 nM; incubation time: 72 h
Method in brief: as §1

CAL-85-1 [3] = settings: 10 nM; incubation time: 72 h
Method in brief: as §1

HCC1937 [4] = settings: 100 nM; incubation time: 72 h
Method in brief: as §1

HDQ-P1 [5] = settings: 10 nM; incubation time: 72 h
Method in brief: as §1

MDA-MB-231 = settings: 100 nM; incubation time: 72 h
Method in brief: as §1

MDA-MB-468 = settings: 100 nM; incubation time: 72 h
Method in brief: as §1

SK-BR-3 [6] = settings: 100 nM; incubation time: 72 h
Method in brief: as §1

BT-474 = settings: incubation time: 72 h
Method in brief: as §1

BT-549 [7] = settings: incubation time: 72 h
Method in brief: as §1

CAL-120 = settings: incubation time: 72 h
Method in brief: as §1

CAL-148 [8] = settings: incubation time: 72 h
Method in brief: as §1

CAL-51 [9] = settings: incubation time: 72 h
Method in brief: as §1

DU-4475 [10] = settings: incubation time: 72 h
Method in brief: as §1

HCC1599 = settings: incubation time: 72 h
Method in brief: as §1

HCC1937 [11] = settings: incubation time: 72 h
Method in brief: as §1

HDQ-P1 [12] = settings: incubation time: 72 h
Method in brief: as §1

Hs578T = settings: incubation time: 72 h
Method in brief: as §1

MDA-MB-436 = settings: incubation time: 72 h
Method in brief: as §1

MFM-223 = settings: incubation time: 72 h
Method in brief: as §1

SK-BR-3 [13] = settings: incubation time: 72 h
Method in brief: as §1

CAL-148 [14] = settings: 300 nM; incubation time: 72 h
Protocol: (§2)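 DSRT, CellTiter-Blue viability, 72 h incubation. Signal is normalised to DMSO and benzethonium chloride controls. Value is the normalised response at dose 6.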

CAL-51 [15] = settings: 300 nM; incubation time: 72 h
Protocol: as §2

CAL-85-1 [16] = settings: 300 nM; incubation time: 72 h
Protocol: as §2

DU-4475 [17] = settings: 300 nM; incubation time: 72 h
Protocol: as §2

HDQ-P1 [18] = settings: 300 nM; incubation time: 72 h
Protocol: as §2

MDA-MB-453 = settings: 300 nM; incubation time: 72 h
Protocol: as §2

Compound `CC[C@H](Nc1ncnc2[nH]cnc12)c1nc2cccc(F)c2c(=O)n1-c1ccccc1` [CAL-101] has a normalised viability (BT-549 [1]) of 102%, a normalised viability (CAL-148 [2]) of 96.2% and a normalised viability (CAL-85-1 [3]) of 87.5%. For the same compound, the normalised viability (HCC1937 [4]) was 97.1%, the normalised viability (HDQ-P1 [5]) was 112% and the normalised viability (MDA-MB-231) was 80.9%. It also gave a normalised viability (MDA-MB-468) of 115%, a normalised viability (SK-BR-3 [6]) of 76.3% and a normalised viability (BT-474; 10 nM) of 108%. It also gave a normalised viability (BT-474; 1000 nM) of 109%, a normalised viability (BT-474; 10000 nM) of 90.9% and a normalised viability (BT-549 [7]; 10 nM) of 100%. It also gave a normalised viability (BT-549 [7]; 1000 nM) of 96.6%, a normalised viability (BT-549 [7]; 10000 nM) of 71.8% and a normalised viability (CAL-120; 10 nM) of 95.6%. For the same compound, the normalised viability (CAL-120; 1000 nM) was 89.6%, the normalised viability (CAL-120; 10000 nM) was 77.8% and the normalised viability (CAL-148 [8]; 3 nM) was 91.9%. For the same compound, the normalised viability (CAL-148 [8]; 30 nM) was 92.1%, the normalised viability (CAL-148 [8]; 100 nM) was 88.5% and the normalised viability (CAL-51 [9]; 3 nM) was 93%. It also gave a normalised viability (CAL-51 [9]; 30 nM) of 92%, a normalised viability (CAL-51 [9]; 100 nM) of 98% and a normalised viability (DU-4475 [10]; 3 nM) of 105%. For the same compound, the normalised viability (DU-4475 [10]; 30 nM) was 83.2%, the normalised viability (DU-4475 [10]; 100 nM) was 86.2% and the normalised viability (HCC1599; 10 nM) was 84.8%. The normalised viability (HCC1599; 1000 nM) was 77.9%, the normalised viability (HCC1599; 10000 nM) was 49.1% and the normalised viability (HCC1937 [11]; 10 nM) was 106%. It also gave a normalised viability (HCC1937 [11]; 1000 nM) of 94.5%, a normalised viability (HCC1937 [11]; 10000 nM) of 92.4% and a normalised viability (HDQ-P1 [12]; 3 nM) of 90%. For the same compound, the normalised viability (HDQ-P1 [12]; 30 nM) was 101%, the normalised viability (HDQ-P1 [12]; 100 nM) was 102% and the normalised viability (Hs578T; 10 nM) was 116%. The normalised viability (Hs578T; 1000 nM) was 112%, the normalised viability (Hs578T; 10000 nM) was 86.8% and the normalised viability (MDA-MB-436; 10 nM) was 111%. For the same compound, the normalised viability (MDA-MB-436; 1000 nM) was 107%, the normalised viability (MDA-MB-436; 10000 nM) was 95.7% and the normalised viability (MFM-223; 10 nM) was 90.3%. The normalised viability (MFM-223; 1000 nM) was 89.9%, the normalised viability (MFM-223; 10000 nM) was 79.9% and the normalised viability (SK-BR-3 [13]; 10 nM) was 101%. The normalised viability (SK-BR-3 [13]; 1000 nM) was 94.7%, the normalised viability (SK-BR-3 [13]; 10000 nM) was 59.1% and the normalised viability (CAL-148 [14]) was 90.4%. It also gave a normalised viability (CAL-51 [15]) of 85.3%, a normalised viability (CAL-85-1 [16]) of 81.9% and a normalised viability (DU-4475 [17]) of 91.1%. The normalised viability (HDQ-P1 [18]) was 58% and the normalised viability (MDA-MB-453) was 86%.
Work on `C=CC(=O)Nc1cc2c(Nc3ccc(F)c(Cl)c3)ncnc2cc1OCCCN1CCOCC1` [Canertinib] yielded a normalised viability (BT-549 [1]) of 114%, a normalised viability (CAL-148 [2]) of 81.9% and a normalised viability (CAL-85-1 [3]) of 85.4%. It also gave a normalised viability (HCC1937 [4]) of 97.4%, a normalised viability (HDQ-P1 [5]) of 96.6% and a normalised viability (MDA-MB-231) of 91.7%. For the same compound, the normalised viability (MDA-MB-468) was 67.1%, the normalised viability (SK-BR-3 [6]) was 21.4% and the normalised viability (BT-474; 10 nM) was 93.7%. It also gave a normalised viability (BT-474; 1000 nM) of 34.4%, a normalised viability (BT-474; 10000 nM) of 16.3% and a normalised viability (BT-549 [7]; 10 nM) of 103%. The normalised viability (BT-549 [7]; 1000 nM) was 90.7%, the normalised viability (BT-549 [7]; 10000 nM) was 2.56% and the normalised viability (CAL-120; 10 nM) was 79.9%. For the same compound, the normalised viability (CAL-120; 1000 nM) was 72.5%, the normalised viability (CAL-120; 10000 nM) was 6.63% and the normalised viability (CAL-148 [8]; 3 nM) was 81.8%. For the same compound, the normalised viability (CAL-148 [8]; 30 nM) was 88.8%, the normalised viability (CAL-148 [8]; 100 nM) was 75.6% and the normalised viability (CAL-51 [9]; 3 nM) was 110%. It also gave a normalised viability (CAL-51 [9]; 30 nM) of 105%, a normalised viability (CAL-51 [9]; 100 nM) of 105% and a normalised viability (DU-4475 [10]; 3 nM) of 107%. The normalised viability (DU-4475 [10]; 30 nM) was 113%, the normalised viability (DU-4475 [10]; 100 nM) was 96.8% and the normalised viability (HCC1599; 10 nM) was 96.2%. For the same compound, the normalised viability (HCC1599; 1000 nM) was 106%, the normalised viability (HCC1599; 10000 nM) was 43.9% and the normalised viability (HCC1937 [11]; 10 nM) was 62.8%. For the same compound, the normalised viability (HCC1937 [11]; 1000 nM) was 73.1%, the normalised viability (HCC1937 [11]; 10000 nM) was 13.6% and the normalised viability (HDQ-P1 [12]; 3 nM) was 106%. For the same compound, the normalised viability (HDQ-P1 [12]; 30 nM) was 90.6%, the normalised viability (HDQ-P1 [12]; 100 nM) was 76% and the normalised viability (Hs578T; 10 nM) was 96%. The normalised viability (Hs578T; 1000 nM) was 108%, the normalised viability (Hs578T; 10000 nM) was 1.26% and the normalised viability (MDA-MB-436; 10 nM) was 139%. The normalised viability (MDA-MB-436; 1000 nM) was 43.5%, the normalised viability (MDA-MB-436; 10000 nM) was 10.5% and the normalised viability (MFM-223; 10 nM) was 94.8%. The normalised viability (MFM-223; 1000 nM) was 78.6%, the normalised viability (MFM-223; 10000 nM) was 19.7% and the normalised viability (SK-BR-3 [13]; 10 nM) was 71.9%. For the same compound, the normalised viability (SK-BR-3 [13]; 1000 nM) was 19.9%, the normalised viability (SK-BR-3 [13]; 10000 nM) was 12.9% and the normalised viability (CAL-148 [14]) was 81.2%. It also gave a normalised viability (CAL-51 [15]) of 104%, a normalised viability (CAL-85-1 [16]) of 54% and a normalised viability (DU-4475 [17]) of 93.3%. For the same compound, the normalised viability (HDQ-P1 [18]) was 32.4% and the normalised viability (MDA-MB-453) was 48.6%.
